The source of these data is PMC10652874, “Investigation into the mechanism of action of the antimicrobial peptide epilancin 15X” (Frontiers in Microbiology, 2023).

The test system of one test is B. subtilis 168. Put plainly: MIC determination in 96-well microtiter plate. The test is classed as cell-based, Bacillus subtilis. The conditions noted are these: LB, 37°C, 10^5 CFU/mL, OD600 after 18 h. On the procedure: (§1) MIC determination was performed in a 96-well microtiter plate as described previously ([Wu et al., 2019]). Sensitive bacterial culture was grown in the appropriate medium (BHI for S. carnosus; LB for B. subtilis) at 37°C overnight. The culture was diluted to 10^5 CFU/mL in medium in each well. Epilancin 15X or its analog was dissolved in water and serially diluted to obtain final concentrations of 20, 10, 5, 2.5, 1.25, 0.625, 0.3125, 0.156, 0.078, 0.039, 0.019, and 0.009 μM. OD600 readings were obtained after 18 h using a Synergy H4 Hybrid Multi-Mode Microplate Reader (BioTeK). Cell-free untreated medium, and untreated cell culture were used as negative controls. The MIC of nisin against B. subtilis BSF2470 was determined following the same methods.

The subject of the next test is B. subtilis ATCC 6633. Put plainly: MIC determination in 96-well microtiter plate. The test is classed as cell-based, Bacillus subtilis. Conditions: LB, 37°C, 10^5 CFU/mL, OD600 after 18 h. The protocol: as §1
For test [1], the system named is B. subtilis BSF2470 (1A980). Kind of test: MIC determination in 96-well microtiter plate. Format: cell-based, Bacillus subtilis. The conditions noted are these: LB, 37°C, 10^5 CFU/mL, OD600 after 18 h. On the procedure:
as §1

The test system of test [2] is S. carnosus TM300. Kind of test: Membrane permeability study with propidium iodide (flow cytometry). Format: cell-based, Staphylococcus carnosus. The conditions noted are these: S. carnosus TM300, 20 min exposure, 0.5x, 1x, 4x MIC, n = 3. The protocol:
(§2) Cultures of S. carnosus TM300 and B. subtilis BSF2470 were grown to OD600 1.0 and diluted to OD600 0.1 in fresh BHI or LB medium, respectively. The culture was then combined with a final concentration of 25 μM PI (ThermoFisher P3566), 1 mM HEPES, and 1 mM glucose. […] Another two tubes were prepared without antibiotic treatment as controls. The culture was analyzed with a BD Biosciences LSR II flow cytometer for S. carnosus and a BD Biosciences LSRFortessa for B. subtilis using excitation at 488 nm with an argon laser and measurement of emission through a band-pass filter at 695/40 nm. A minimum of 30,000 events were detected for each sample. The experiment was repeated three times, and the mean PI uptake value was determined. The results were calibrated such that the mean PI uptake from the 4x MIC nisin-treated cell culture was set as 100% PI uptake.
In general terms: Flow cytometry measures light scatter and fluorescence of single cells or particles in a stream.

The test system of the next test is B. subtilis BSF2470. The test is described as above. The test is classed as cell-based, Bacillus subtilis. Conditions: B. subtilis BSF2470, 20 min exposure, 0.5x, 1x, 4x MIC, n = 3. On the procedure:
as §2

Test [3] concerns S. carnosus TM300. Kind of test: Membrane potential study with DiOC2 (flow cytometry). The conditions noted are these: S. carnosus TM300, 20 min, 0.5x, 1x, 4x MIC, n = 3. The test is classed as cell-based, Staphylococcus carnosus. The protocol: Cultures of S. carnosus TM300 were grown to OD600 1.0 and diluted to OD600 0.1 in fresh BHI medium. The culture was then combined with 30 μM 3,3′-diethyloxacarbocyanine (DiOC2, ThermoFisher D14730) and incubated for 20 min. […] Another two tubes were prepared without antibiotic treatment as controls. The culture was analyzed with a BD Biosciences LSR II flow cytometer using excitation at 488 nm with an argon laser and measurement of emission through a band-pass filter at 616/20 nm. A minimum of 30,000 events were detected for each sample. The experiment was repeated three times, and the mean red/green fluorescence ratio was determined.

For test [4], the system named is fatty acid biosynthesis in S. carnosus TM300. Format: cell-based, Staphylococcus carnosus. The conditions noted are these: S. carnosus TM300, 2× MIC, normalized to OD600, three independent experiments.
Protocol: Thre e in de pen den t ex perime nts of incorporation of (A) 14C- acetic acid into fatty acids, (B) 14C- thymi din e into D NA, (C) 3H-uridi ne into RNA, (D) 14C- lab el ed ami no acids into protei n, and (E) 14C- label ed GlcNAc into cell w all in S. carnosus TM300 cells treated with vario u s antimicro bia l agents. T he p ercent i nco rpo ratio n at 0 min was measured after incubati ng the cel l cultur e with 0.8 μCi/mL radioactive precursors for 15 min. […] Positive controls a re gr een and negative controls are black (cells o nly) an d blu e (co mpo und w ith mo d e o f actio n unr elate d to th e a ssay i n que stio n). T he ra dio activity o f each a nti bio tic - treated cultur e was normalized based on it s OD600 at each time point compared to th e unt reate d ce ll cultur e.
In test [5] the test system is protein biosynthesis in S. carnosus TM300. Kind of test: Macromolecular synthesis assay: 14C-L-amino acids incorporation into protein. The test is classed as cell-based, Staphylococcus carnosus. Conditions: S. carnosus TM300, 2× MIC, three independent experiments. On the procedure:
Radiolabel incorporation experiments were carried out similarly as previously described but using S. carnosus ([Wu et al., 2019]). The OD600 of parallel nonradioactive cultures was measured at each time point to normalize the measured radioactivity and minimize effects due to cell death and growth inhibition. The radiolabeled reagents and their corresponding positive and negative antibiotic controls were as follows. […] All experiments were conducted independently three times.
Figure S3. Thre e in de pen den t ex perime nts of incorporation of (A) 14C- acetic acid into fatty acids, (B) 14C- thymi din e into D NA, (C) 3H-uridi ne into RNA, (D) 14C- lab el ed ami no acids into protei n, and (E) 14C- label ed GlcNAc into cell w all in S. carnosus TM300 cells treated with vario u s antimicro bia l agents. T he p ercent i nco rpo ratio n at 0 min was measured after incubati ng the cel l cultur e with 0.8 μCi/mL radioactive precursors for 15 min. Then 0.5x, 1x, 2x, or 4x MIC epilanci n 15X and 2x MIC controls were added to the cell cultur e (t=0), and t he percent incorporation was measur ed ov er time. Positive controls a re gr een and negative controls are black (cells o nly) an d blu e (co mpo und w ith mo d e o f actio n unr elate d to th e a ssay i n que stio n). […]

For test [6], the system named is S. carnosus TM300. Put plainly: Agar diffusion bioactivity assay with lipids in flanking wells. Format: cell-based, Staphylococcus carnosus. Conditions: S. carnosus TM300 on BHI agar, overnight. The protocol:
For agar diffusion antimicrobial activity assays, the autoclaved 1.5% agar was prepared in the appropriate medium and cooled in a 40°C water bath for 15 min. A total of 50 μL overnight culture of the sensitive strain was added to the agar and kept in the water bath. A total of 25 mL seeded agar was poured into a sterile OmniTray (Nunc) and allowed to solidify at room temperature for 30 min. An additional 35 mL of seeded agar was poured over the lower solidified agar layer. A sterile 96-well PCR plate was placed in the molten agar upper layer, and the agar was allowed to solidify at 25°C for 30 min. After sufficient solidification, the 96-well PCR plate was removed. Then 20 μL volume of each peptide was dispensed into the wells. Plates were left at 25°C for 30 min until the wells were dried, and the plates were incubated at 37°C overnight. The antibacterial activity was determined by the presence or absence of growth inhibition.
Figure S5. (A) Zones of growt h inhibition of epilancin 15X a nd nisin A against S. carnosus TM30 0 grown on BHI agar plates. The indicated amounts of antibiotics were placed in the well shown in the center of the zone of inhibition. […]

Usually MIC stands for the lowest concentration found to suppress growth.

With Epilancin 15X, the MIC with B. subtilis 168 came out at 4.00 µM; in the test with B. subtilis ATCC 6633 it was 1.25 µM; in test [1] it was 2.5 µM. In addition, the “PI uptake (membrane disruption)” value in the test with S. carnosus TM300 [2] and in the test on B. subtilis BSF2470 was “increase” in each case. In the test on S. carnosus TM300 [3], the “red/green fluorescence ratio of DiOC2 (membrane potential)” value is given as “increase”. In [4], the “fatty acid biosynthesis (14C-acetic acid incorporation)” value was “decrease”. Further, the “protein biosynthesis (14C-L-amino acid incorporation)” value in test [5] is “considerably stronger effect than that observed with the respective negative controls”. Moreover, the “antagonism of bioactivity (zone of growth inhibition) by purified S. aureus LTA” value in the test with S. carnosus TM300 [6] is listed as “antagonized”.
